One assay deals with T1, Aß (Homo sapiens, UniProt P05067).
T1 construct: Effect of bis-ANS on Aβ1-42 Solubility and Precipitation by Zn^2+
Description: Bis-ANS fluorescence assay: inhibition (prevention) of zinc induced Aß aggregation. Type of assay: biochemical. To be noted: bisANS assay, soluble Aß plus added zinc (FIG. 1, dotted arrow). An excerpt: (§1) Measurement of inhibition or reversal of protein aggregation may be carried out using such assays as Bis-ANS Fluorescence as described in, for example, W. T. Chen et al., J. Biol. Chem, 2011, 286 (11), 9646, or thioflavin T assay as disclosed herein. FIG. 1 depicts the measurement of aggregation prevention by added zinc and disaggregation of zinc induced aggregates by AC047 in a bisANS assay. In the presence of soluble Aß, zinc induces aggregation within milliseconds. This aggregation is detected by an increase in bisANS fluorescence. An excess of EDTA serves as a control by binding zinc and preventing aggregation. Both prevention of aggregation and disaggregation can be detected in the assay. […] The compounds described above were evaluated for the inhibition and reversal of protein aggregation as carried out using such assays as Bis-ANS Fluorescence as described in, for example, J. Biol. Chem, 2011, 286 (11), 9646. All compounds prepared above were measured to show EC50 between 0.000001 to 0.10 mM in both assays in the presence of Zinc (II). Aβ1-42 (25 μM) in Tris-HCl buffer (50 mM, pH7.4) was incubated at RT for 10 min in the presence or absence of ZnCl2 (25 μM) and bis-ANS (50 μM). […] A sample of the supernatant was then collected and compared by dot blot for peptide content to the sample of starting material to quantify how much original peptide had been lost due to precipitation.

Assay [1] deals with T2, zinc induced Aß aggregates (Homo sapiens, UniProt P05067).
T2 construct: Effect of bis-ANS on Aβ1-42 Solubility and Precipitation by Zn^2+
T2 sequence (P05067 672-713): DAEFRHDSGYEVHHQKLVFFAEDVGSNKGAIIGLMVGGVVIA
Description: Bis-ANS fluorescence assay: reversal (disaggregation) of zinc induced Aß aggregates. It is filed as biochemical. To be noted: bisANS assay, zinc induced aggregates (FIG. 1, solid arrow).
Source text: as §1

1 compound from patent US10047089B2, “Dihydro-6-azaphenalene derivatives for the treatment of CNS, oncological diseases and related disorders” (Collaborative Medicinal Development, LLC, priority 2012, dated 2018) can be followed below.

The structures appear in SMILES notation.

T1 sequence (P05067 672-713): as above

As for `O=C1c2ccnc3c(O)ccc(c23)C(=O)N1Cc1ccccc1` [AC047, 5-benzyl-9-hydroxy-4H-benzo[de][2,6]naphthyridine-4,6(5H)-dione], the “prevention of zinc induced aggregation” value on Aß is listed as “can prevent zinc induced aggregation”. In addition, the “elimination of zinc induced Aß aggregates (disaggregation)” value in assay [1] was “can eliminate zinc induced Aß aggregates”.
